Structures can show the parent of a compound that is named as a salt.
What was measured:
[1] = system: P. berghei; experiment: antimalarial activity, standard in vivo test procedure against P. berghei in Swiss mice (ED50 on day 4 of treatment); details: for ED50 Day 4 (mean values): effective dose which decreases the cell parasitemia by 50 percent on day 4 of treatment: Swiss mice infected i.p. with P. berghei, oral intubation in 0.2% methyl cellulose, 1, 4, 16 mg/kg/day × 4 days, 4 mice per group, 5760 min
Experimental: The antimalarial activity of 1-[1,3-dichloro-6-trifluoromethyl-9-phenanthryl]-3-di(n-butyl)aminopropanol quinate (Compound A) was established utilizing the following methodology. Test animals were infected by interperitoneal injection of 9×10^6 parasitized cells of P. berghei contained in 0.25 ml of 1:40 dilution in 0.9% aqueous sodium chloride with potassium citrate added of donor mouse blood which was infected with P. berghei one week earlier. Three days after injection, 3 groups of 4 mice (2 males and 2 females) were treated with Compound A at a dose level of 1, 4 and 16 mg/kg/day for 4 consecutive days. Similarly, a positive control of 3 groups of 4 mice (2 males and 2 females) were treated with halofantrine, as the hydrochloride salt, at a dose level of 1, 4 and 16 mg/kg/day for 4 consecutive days. The route of administration of Compound A and halofantrine was oral intubation of a suspension of each compound in 0.2% methyl cellulose at a constant volume of […]. A negative control group of 4 mice (2 males and 2 females) remained untreated. The results of the above test procedure expressed as an ED50 (the effective dose which decrease the cell parasitemia by 50 percent on day 4 of treatment) are shown below in Table I.

[2] = water solubility; format: physicochemical; details: weight to weight basis
[3] = system: Cambodian Buchanan strain of P. falciparum; details: administered over a short period of time, minimum of two doses; cited from earlier work
[4] = system: Chesson strain of P. vivax; details: administered over a short period of time, minimum of two doses; cited from earlier work
[5] = in vivo; cited from earlier work
[6] = system: multi-drug resistant Vietnam Smith strain of P. falciparum; details: administered over a short period of time, minimum of two doses; cited from earlier work

Compound	times more effective, on a weight by weight basis, than halofantrine hydrochloride (ED50 on day 4) ([1]; P. berghei malaria in mice, compared to halofantrine hydrochloride)	ED50 Day 4 (mean values): effective dose which decreases the cell parasitemia by 50 percent on day 4 of treatment [1]	solubility [2]	ED50 Day 4 (mean values): effective dose which decreases the cell parasitemia by 50 percent on day 4 of treatment ([1]; hydrochloride)	effectiveness against Cambodian Buchanan strain [3]	effectiveness against Chesson strain of P. vivax [4]	systemic bioavailability [5]	effectiveness against Vietnam Smith strain [6]
CCCCN(CCCC)CCC(O)c1cc2c(Cl)cc(Cl)cc2c2cc(C(F)(F)F)ccc12 (centres unmarked) [Compound A, 1-[1,3-dichloro-6-trifluoromethyl-9-phenanthryl]-3-di(n-butyl)aminopropanol quinate]	at least 6 times	≤ 1 mg/kg	≤ 200 mg/mL					
CCCCN(CCCC)CCC(O)c1cc2c(Cl)cc(Cl)cc2c2cc(C(F)(F)F)ccc12 (centres unmarked) [Halofantrine (HCl), 1-[1,3-dichloro-6-trifluoromethyl-9-phenanthryl]-3-di-(n-butyl)-aminopropanol hydrochloride]				6 mg/kg	effective	effective	problems with systemic bioavailability remained	effective

Source: patent US4818767A, “Quinate salts of antimalarial phenanthrenemethanol compounds” (SmithKline Beckman Corporation, priority 1983, dated 1989)
